We go through three compounds from patent US20110218218A1, “Formulations Of Indanylamines And The Use Thereof As Local Anesthetics And As Medication For Chronic Pain” (BRIDGE PHARMA, INC., priority 2005, published 2011).

Structures are written as SMILES. Values after ≈ are worked out from the molar mass of the structure shown.

Data set [1] in a line: Water solubility (spectrophotometric, HPLC). The settings on record: LAC-34 as free base. The class given is physicochemical. The procedure: (§1) Water solubility and dissociation constants were determined for the free base of LAC-34 using standard spectrophotometric, HPLC and potentiometric methods.
Data set [2] can be described thus: Saturation solubility of LAC-34 free base in selected solvents (HPLC). The class given is physicochemical. The settings on record: 22 °C, thermodynamic from solid. The procedure:
(§2) HPLC analytical methodology was developed, using LAC-34 free base at room temperature (21-23° C.). A liquid's ability to dissolve LAC-34 was screened by adding a known mass of LAC-34 to a known volume/mass of liquid. Saturation solubility was measured by adding an excess of drug substance and allowing the suspension to equilibrate while stirring for 2-3 days. Four solutions of different concentrations of LAC-34 (8.1 mcg/mL to 0.98 mg/mL) plus a blank were typically tested in triplicate. Excellent linearity of the recovery was obtained over […] in LAC-34 concentrations and the relative standard deviations of peak areas for all LAC-34 solutions were less than 0.5%.
The saturation solubility of LAC-34 was measured in capric/caprylic triglycerides (CCT), dimethylsulfoxide (DMSO), ethanol, isopropanol, isopropyl myristate (IPM), pentane, propylene glycol (PG), and water. CCT and IPM were selected for further work since they can function as emollients and oily vehicles in creams. DMSO is a solvent and a penetration enhancer. Ethanol and isopropanol are volatile solvents and rapid evaporation of a solvent like ethanol and isopropyl alcohol may be important for minimizing therapeutic onset time. Propylene glycol has multiple functions in dermal formulations, the most important of which are solubilization and penetration enhancement.
The analytical HPLC method described in Example 1 was used.
All of the solvents, with the exception of water, were able to dissolve large quantities of LAC-34. LAC-34, as the free base, was very soluble also in DMSO. Both IPM and CCT, which are semi-polar emollient oils, had also high solubilization capacity for LAC-34. Propylene glycol (PG), which has multiple actions for dermal drug delivery (see Table 1), was also able to solubilize significant quantities of LAC-34. […] After observing this phenomenon with ethanol, 0.125 g of isopropanol was added to 0.25 g of LAC-34. […] This was approximately 526 mg/mL.

The next data set addresses T1, human NaV1.5 channels (Homo sapiens, UniProt Q14524).
T1 construct: expressed in transfected cells; host or cells: HEK-293
In words: NaV1.5 electrophysiology (patch clamp) in HEK-293 cells. The class given is cell-based. On the technique in general: In patch-clamp work, channel activity is measured electrically.

Data set [3] can be described thus: Ternary solubility studies: PG/ethanol solutions titrated with water until cloudy. Type of data set: physicochemical. The procedure: Therefore, several solutions were made where PG would be saturated or almost saturated with LAC-34 (i.e., […]). A quantity of ethanol was added to act at the volatile solvent. Each solution was titrated with water until it became cloudy. As with other titrations with water, the LAC-34 appeared to come out of solution as a liquid (oil) rather than a solid.

Data set [4] can be described thus: Solubility of LAC-34 in binary mixtures of solvent and water (anti-solvent). The class given is physicochemical. The procedure:
Due to the very high solubility of LAC-34 free base in numerous volatile solvents, it was determined to be necessary to find and add an anti-solvent in order to reach saturation of the solutions of LAC-34. The efficacy of water is an anti-solvent for LAC-34 free base was investigated in the present studies.

A further data set concerns guinea pigs. Description: Dermal anesthesia after dermal application, pinprick method. The conditions noted are these: for Average Anesthetic Score: 2.0 ml of 5.0% solution in DMSO/water, 30 min occluded, maximal score 6. The class given is in vivo, guinea pig. The procedure:
The purpose of this study was to determine the efficacy of the free base and pharmaceutically acceptable salt forms of LAC-34 as dermal anesthetics, following dermal application of the compounds to guinea pigs. The Duration of Anesthesia is directly related to the Dermal Residence Times of the test articles.
Four groups of six male guinea pigs received a dose of 2.0 ml of a 5.0% solution of four test articles (LAC-34 base, LAC-34 mono-HCl salt, LAC-34 di-HCl salt and LAC-34 mesylate salt) that had been applied onto a two-inch square, 4-layer thick gauze pad on depilated dorsal skin of each guinea pig. Similarly, one group of guinea pigs received the vehicle, which consisted of DMSO/water and served as the control group. The gauze was occluded and the guinea pigs were wrapped for 30 min. Animals were assessed for initial pain reaction (anesthetic depth) at 15-minute intervals up to 3 hours and at 24 hours. An algesimeter, set at 10 g, was employed to assess the onset and depth of anesthesia using the pinprick method causing a twitch response or non-response. The “Average Anesthetic Score” was defined as number of probings not producing a dermal twitch response. Thus, a situation where there were no dermal twitch responses to six probings represent a maximal anesthetic effect and is denoted as an Average Anesthetic Score of 6. Duration of Anesthesia was in this study defined as the time from patch removal until the test scores have regressed to an average anesthetic score below 2.0. The Duration of Anesthesia in this type of experiments is directly related the duration of Dermal Residency for the test articles.

Data set [5] is described as follows: Dissociation constant (pKa), potentiometric. The settings on record: LAC-34 as free base. The class given is physicochemical. The procedure: as §1
The target in the next data set is T2, human NaV1.3 channels (Homo sapiens, UniProt Q9NY46).
T2 construct: expressed in transfected cells; host or cells: HEK-293
T2 sequence (Q9NY46 whole entry): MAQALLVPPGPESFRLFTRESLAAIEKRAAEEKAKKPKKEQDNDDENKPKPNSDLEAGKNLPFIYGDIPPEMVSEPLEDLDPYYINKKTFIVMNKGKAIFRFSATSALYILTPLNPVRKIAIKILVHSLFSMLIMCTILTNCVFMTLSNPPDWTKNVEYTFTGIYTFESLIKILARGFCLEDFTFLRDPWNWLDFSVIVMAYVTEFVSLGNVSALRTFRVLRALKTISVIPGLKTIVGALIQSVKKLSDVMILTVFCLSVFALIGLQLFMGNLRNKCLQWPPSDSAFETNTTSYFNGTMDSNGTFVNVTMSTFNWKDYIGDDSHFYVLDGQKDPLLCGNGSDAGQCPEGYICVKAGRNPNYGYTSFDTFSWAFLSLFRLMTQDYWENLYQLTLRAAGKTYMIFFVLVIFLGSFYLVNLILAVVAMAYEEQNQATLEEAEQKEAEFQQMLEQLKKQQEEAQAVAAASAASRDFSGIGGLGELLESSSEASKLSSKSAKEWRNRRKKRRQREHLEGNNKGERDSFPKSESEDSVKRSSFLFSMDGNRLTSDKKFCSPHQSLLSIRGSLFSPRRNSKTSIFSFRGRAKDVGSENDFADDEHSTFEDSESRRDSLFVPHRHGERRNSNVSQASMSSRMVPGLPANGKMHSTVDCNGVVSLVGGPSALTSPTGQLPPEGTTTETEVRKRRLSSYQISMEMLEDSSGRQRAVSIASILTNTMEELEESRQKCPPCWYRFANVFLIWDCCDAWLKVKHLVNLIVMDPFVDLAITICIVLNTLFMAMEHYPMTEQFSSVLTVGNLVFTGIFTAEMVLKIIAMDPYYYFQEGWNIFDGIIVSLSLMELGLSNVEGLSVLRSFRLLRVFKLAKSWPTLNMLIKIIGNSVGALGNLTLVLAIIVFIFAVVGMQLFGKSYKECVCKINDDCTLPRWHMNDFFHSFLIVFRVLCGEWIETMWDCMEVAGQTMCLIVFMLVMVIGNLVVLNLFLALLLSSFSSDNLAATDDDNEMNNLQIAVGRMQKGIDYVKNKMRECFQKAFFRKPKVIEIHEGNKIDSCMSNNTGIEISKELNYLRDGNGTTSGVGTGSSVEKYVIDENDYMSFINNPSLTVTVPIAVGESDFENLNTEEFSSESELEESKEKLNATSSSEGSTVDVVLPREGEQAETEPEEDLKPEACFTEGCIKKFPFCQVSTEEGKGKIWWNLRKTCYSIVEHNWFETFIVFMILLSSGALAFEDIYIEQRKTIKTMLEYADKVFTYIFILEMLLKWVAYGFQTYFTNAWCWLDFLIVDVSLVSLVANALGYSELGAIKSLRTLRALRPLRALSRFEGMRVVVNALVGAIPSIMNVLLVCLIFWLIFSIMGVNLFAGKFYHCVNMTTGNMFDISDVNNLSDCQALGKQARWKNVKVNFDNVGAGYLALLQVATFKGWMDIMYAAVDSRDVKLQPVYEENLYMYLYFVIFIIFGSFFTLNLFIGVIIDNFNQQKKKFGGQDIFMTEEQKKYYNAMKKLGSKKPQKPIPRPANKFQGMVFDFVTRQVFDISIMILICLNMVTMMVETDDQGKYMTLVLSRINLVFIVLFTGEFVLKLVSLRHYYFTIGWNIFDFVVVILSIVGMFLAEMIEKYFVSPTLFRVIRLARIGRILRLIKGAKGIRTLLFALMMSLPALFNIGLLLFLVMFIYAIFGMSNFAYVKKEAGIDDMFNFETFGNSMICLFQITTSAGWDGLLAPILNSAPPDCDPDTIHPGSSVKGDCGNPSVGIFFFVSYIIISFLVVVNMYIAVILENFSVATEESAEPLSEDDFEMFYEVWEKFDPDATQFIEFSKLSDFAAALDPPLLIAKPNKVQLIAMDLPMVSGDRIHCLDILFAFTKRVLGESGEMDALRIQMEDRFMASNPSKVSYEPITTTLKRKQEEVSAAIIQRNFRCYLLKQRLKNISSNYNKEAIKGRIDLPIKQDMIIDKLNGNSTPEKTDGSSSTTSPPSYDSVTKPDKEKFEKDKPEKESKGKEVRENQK
Description: NaV1.3 electrophysiology (patch clamp) in HEK-293 cells. The class given is cell-based.

Data set [6] in a line: Physical state of LAC-34 in solvents when tested at 4° C. Type of data set: physicochemical. The procedure:
When tested at 4° C., 20% LAC-34 in benzyl alcohol was a solution, 5% LAC-34 in propylene glycol was a gel, 5% LAC-34 in isopropyl myristate was a suspension, 5% LAC-34 in isopropyl palmitate was a solid, 5% LAC-34 in isopropyl alcohol was a suspension and cetyl alcohol was a solid (melting point=49.3° C.)

For data set [7], the system named is batrachotoxin-sensitive Na+ channel (site 2). In words: [3H]batrachotoxin binding to Na+ channels (site 2). The arrangement: species or system rat.
Data set [8] in a line: Screening of excipients for their capability to dissolve LAC-34 free base at room temperature. Type of data set: physicochemical. The settings on record: 22 °C, thermodynamic from solid. The procedure: as §2
Various excipients were tested for their capability to dissolve LAC-34, free base.

T1 sequence (Q14524 whole entry): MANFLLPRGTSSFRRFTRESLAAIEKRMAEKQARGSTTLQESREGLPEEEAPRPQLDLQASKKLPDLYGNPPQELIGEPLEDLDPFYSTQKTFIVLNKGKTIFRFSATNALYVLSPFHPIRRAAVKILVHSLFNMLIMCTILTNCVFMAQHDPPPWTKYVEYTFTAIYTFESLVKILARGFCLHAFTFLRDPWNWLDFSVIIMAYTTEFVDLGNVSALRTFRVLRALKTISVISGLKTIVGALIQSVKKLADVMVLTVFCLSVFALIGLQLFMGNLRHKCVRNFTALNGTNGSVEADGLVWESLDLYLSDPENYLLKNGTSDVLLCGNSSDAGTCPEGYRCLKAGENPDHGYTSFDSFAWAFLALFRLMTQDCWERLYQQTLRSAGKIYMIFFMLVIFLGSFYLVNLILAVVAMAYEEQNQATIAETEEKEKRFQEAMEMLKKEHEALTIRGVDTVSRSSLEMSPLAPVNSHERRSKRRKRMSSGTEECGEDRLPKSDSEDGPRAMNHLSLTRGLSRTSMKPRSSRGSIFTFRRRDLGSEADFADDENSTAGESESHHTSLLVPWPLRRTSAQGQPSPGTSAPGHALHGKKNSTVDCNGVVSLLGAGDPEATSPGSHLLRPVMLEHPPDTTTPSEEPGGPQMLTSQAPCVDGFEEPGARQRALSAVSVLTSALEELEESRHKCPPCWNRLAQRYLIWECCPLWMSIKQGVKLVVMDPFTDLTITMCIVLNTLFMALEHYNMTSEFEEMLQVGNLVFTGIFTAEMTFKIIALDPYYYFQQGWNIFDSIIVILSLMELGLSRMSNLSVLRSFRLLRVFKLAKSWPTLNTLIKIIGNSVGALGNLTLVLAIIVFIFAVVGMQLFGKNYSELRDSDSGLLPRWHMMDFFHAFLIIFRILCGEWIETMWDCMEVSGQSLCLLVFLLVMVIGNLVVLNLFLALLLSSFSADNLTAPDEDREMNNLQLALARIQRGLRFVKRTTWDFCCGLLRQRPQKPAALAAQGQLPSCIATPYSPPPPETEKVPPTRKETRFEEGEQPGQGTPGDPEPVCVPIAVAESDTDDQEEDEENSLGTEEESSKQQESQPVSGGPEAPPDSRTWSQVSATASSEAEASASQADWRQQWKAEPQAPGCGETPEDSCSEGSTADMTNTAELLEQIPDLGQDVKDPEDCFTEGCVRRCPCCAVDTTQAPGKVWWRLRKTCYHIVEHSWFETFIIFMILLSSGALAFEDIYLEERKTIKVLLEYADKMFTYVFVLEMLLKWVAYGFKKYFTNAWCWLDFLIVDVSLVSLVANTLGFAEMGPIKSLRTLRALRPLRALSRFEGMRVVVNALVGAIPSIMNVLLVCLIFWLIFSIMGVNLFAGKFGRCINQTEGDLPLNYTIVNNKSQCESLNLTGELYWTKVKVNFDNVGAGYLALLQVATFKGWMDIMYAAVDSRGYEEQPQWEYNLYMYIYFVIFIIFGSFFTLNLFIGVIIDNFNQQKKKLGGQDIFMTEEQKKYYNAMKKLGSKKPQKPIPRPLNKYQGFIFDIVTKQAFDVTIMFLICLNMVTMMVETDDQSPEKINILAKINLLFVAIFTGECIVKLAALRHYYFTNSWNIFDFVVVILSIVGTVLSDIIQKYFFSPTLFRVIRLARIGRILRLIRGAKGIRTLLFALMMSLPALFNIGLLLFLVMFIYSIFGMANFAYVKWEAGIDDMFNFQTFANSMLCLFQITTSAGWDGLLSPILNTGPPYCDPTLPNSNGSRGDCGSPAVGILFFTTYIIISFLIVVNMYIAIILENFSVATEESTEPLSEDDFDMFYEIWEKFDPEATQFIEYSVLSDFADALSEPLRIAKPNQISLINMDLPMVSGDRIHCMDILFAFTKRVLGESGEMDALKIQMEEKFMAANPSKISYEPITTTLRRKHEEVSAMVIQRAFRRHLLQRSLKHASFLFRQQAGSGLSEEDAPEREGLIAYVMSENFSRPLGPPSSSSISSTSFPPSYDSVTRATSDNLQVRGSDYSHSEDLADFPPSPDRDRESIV

In general, solubility refers to the dissolved amount per volume that the medium holds. In general, IC50 refers to the midpoint of a concentration-inhibition curve. A word on the pKa: it is the negative logarithm of the acid dissociation constant. `c1ccc(N(CCC2CCCCN2)C2Cc3ccccc3C2)cc1` (racemic) [LAC-34, 2-[2-(N-Phenyl-N-2-indanyl)aminoethyl]piperidine]: the solubility was 0.005 mg/mL (≈ 0.0156 mM) in data set [1]; 195 mg/mL (≈ 608 mM) in data set [2] (capric/caprylic triglycerides (CCT), oil or lipid, in capric/caprylic triglycerides (CCT)); 215 mg/mL (≈ 671 mM) in [2] (dimethylsulfoxide (DMSO), organic solvent or mixture, in dimethylsulfoxide (DMSO)); above 2000 mg/mL in data set [2] (ethanol, organic solvent or mixture, in ethanol (never saturated)); 184 mg/mL (≈ 574 mM) in data set [2] (isopropyl myristate (IPM), oil or lipid, in isopropyl myristate (IPM)); 150 mg/mL (≈ 468 mM) in data set [2] (pentane, organic solvent or mixture, in pentane, value uncertain, pentane evaporates rapidly). Also, the solubility in data set [2] (propylene glycol (PG), organic solvent or mixture, in propylene glycol (PG)) was 149 mg/mL (≈ 465 mM); in [2] (water, in water), 0.005 mg/mL (≈ 0.0156 mM); in data set [4] (DMSO with 5% water, organic solvent or mixture, DMSO, 5% water, previous tests), at least 100 mg/mL; in [4] (DMSO with 50% water, aqueous with cosolvent or surfactant or cyclodextrin, DMSO, 50% water, read-out: Solubility of LAC-34 in mixture of solvent and water) it was 1.7 mg/mL (≈ 5.3 mM); in [4] (DMSO with 90% water, aqueous with cosolvent or surfactant or cyclodextrin, DMSO, 90% water, read-out: Solubility of LAC-34 in mixture of solvent and water) it was 0.45 mg/mL (≈ 1.4 mM); in data set [4] (DMSO, 0% water, organic solvent or mixture), 215 mg/mL (≈ 671 mM). The solubility in [4] (ethanol with 15% water, organic solvent or mixture, kinetic from dmso stock, ethanol, 15% water, titrated from an ethanol/LAC-34 solution with water) was 63 mg/mL (≈ 197 mM); in data set [4] (ethanol with 20% water, organic solvent or mixture, kinetic from dmso stock, ethanol, 20% water, titrated from an ethanol/LAC-34 solution with water) it was 33 mg/mL (≈ 103 mM); in [4] (ethanol with 30% water, organic solvent or mixture, kinetic from dmso stock, ethanol, 30% water, titrated from an ethanol/LAC-34 solution with water), 7 mg/mL (≈ 21.8 mM); in [4] (ethanol, 0% water, organic solvent or mixture), above 2000 mg/mL; in [4] (propylene glycol with 1% water, organic solvent or mixture, PG, 1% water), 139 mg/mL (≈ 434 mM); in data set [4] (propylene glycol with 2.5% water, organic solvent or mixture, PG, 2.5% water), 104 mg/mL (≈ 325 mM). The solubility stood at 63 mg/mL (≈ 197 mM) in data set [4] (propylene glycol with 5% water, organic solvent or mixture, PG, 5% water); 29 mg/mL (≈ 90.5 mM) in data set [4] (propylene glycol with 10% water, organic solvent or mixture, PG, 10% water); 8.7 mg/mL (≈ 27.1 mM) in [4] (propylene glycol with 20% water, organic solvent or mixture, PG, 20% water); 0.37 mg/mL (≈ 1.15 mM) in data set [4] (propylene glycol with 50% water, aqueous with cosolvent or surfactant or cyclodextrin, PG, 50% water, read-out: Solubility of LAC-34 in mixture of solvent and water); 0.075 mg/mL (≈ 0.234 mM) in data set [4] (propylene glycol with 75% water, aqueous with cosolvent or surfactant or cyclodextrin, PG, 75% water, read-out: Solubility of LAC-34 in mixture of solvent and water); 149 mg/mL (≈ 465 mM) in data set [4] (propylene glycol, organic solvent or mixture, PG, 0% water). For the same compound, the solubility is above 78 mg/mL in [8] (oil or lipid, in isopropyl myristate); 50 to 100 mg/mL (≈ 156 to 312 mM) in data set [8] (oil or lipid, in isopropyl palmitate); below 50 mg/mL in [8] (oil or lipid, in mineral oil); above 100 mg/mL in data set [8] (organic solvent or mixture, in benzyl alcohol); above 79 mg/mL in data set [8] (organic solvent or mixture, in dibutyl adipate); above 86 mg/mL in data set [8] (organic solvent or mixture, in ethanol). Further, the solubility was above 75 mg/mL in data set [8] (organic solvent or mixture, in hexylene glycol); above 79 mg/mL in data set [8] (organic solvent or mixture, in isopropyl alcohol); above 78 mg/mL in data set [8] (organic solvent or mixture, in propylene carbonate); above 76 mg/mL in data set [8] (organic solvent or mixture, in propylene glycol). Also, the IC50 at human NaV1.5 channels is 600 nM; against human NaV1.3 channels (HEK-293 cells, patch clamp) it was 4000 nM; in [7] (rat cerebral cortex, 10 nM ligand, 60 min/22° C., read-out: IC50, inhibition of [3H]batrachotoxin specific binding), 247 nM. In addition, on human NaV1.5 channels (calculated), the “Potency relative to lidocaine, NaV1.5 channels” value was “about 500 times”. Besides, the “Saturation Concentration of LAC-34” value in data set [3] (0.150 g LAC-34, 1.0 g PG, 0.5 g ethanol, 0.317 g water titrated) is reported as 7.6 % w/w; in data set [3] (0.150 g LAC-34, 1.0 g PG, 1.0 g ethanol, 0.601 g water titrated), 5.4 % w/w; in data set [3] (0.200 g LAC-34, 1.0 g PG, 3.0 g ethanol, 1.880 g water titrated), 3.3 % w/w. Further, the “Average Anesthetic Score” value in the data set on guinea pigs (15 min after patch removal) worked out at 4.8; in the data set with guinea pigs (30 min after patch removal) it was 4.8; in the data set with guinea pigs (60 min after patch removal), 4.4; in the data set on guinea pigs (90 min after patch removal), 3.3; in the data set on guinea pigs (180 min after patch removal) it was 2.2. Also, in the data set on guinea pigs (highest Average Anesthetic Score after patch removal, 5.0% solution), the “Maximal Depth of Anesthesia” value amounted to 4.8. Also, in the data set on guinea pigs (time from patch removal until average anesthetic score below 2.0, 5.0% solution), the “Duration of Anesthesia” value is on record as 180 min. In data set [5], the pKa is 8.09 ± 0.23. The “Potency relative to lidocaine, NaV1.3 channels” value on human NaV1.3 channels (calculated) is “more than 200 times”. Besides, the “Physical state at 4° C.” value in data set [6] (5% LAC-34 in isopropyl alcohol) is “suspension”; in [6] (5% LAC-34 in isopropyl myristate) it was “suspension”; in data set [6] (5% LAC-34 in isopropyl palmitate), “solid”; in [6] (5% LAC-34 in propylene glycol), “gel”; in data set [6] (20% LAC-34 in benzyl alcohol) it was “solution”. Also, the “Potency relative to lidocaine, batrachotoxin-sensitive Na-channels” value in [7] (calculated from IC50 values) is “approximately 210 times”.

Broadly, the inhibition is the relative decrease from the control value, in per cent. Turning to `CCN(CC)CC(=O)Nc1c(C)cccc1C` [Lidocaine, reference compound], the inhibition at 2000 µM on human NaV1.3 channels (HEK293, read-out: inhibition of NaV1.3 channels) turned out to be 70%.

Turning to `CCCCNc1ccc(C(=O)OCCN(C)C)cc1` [Tetracaine, reference compound], the concentration in solution in data set [1] (solubility) came to 0.356 mg/mL (≈ 1.35 mM). This compound also had a pKa in data set [5] of 8.51 ± 0.12.
